pIC50: −log10 of the molar value.
target: T1, APOL1 (Homo sapiens, UniProt O14791); test: MultiTox-Fluor Multiplex Cytotoxicity Assay in tet-inducible APOL1 T-REx-HEK293 cells (cell rescue, ratio of dead to live cells); format: cell-based; settings: tet-inducible transgenic APOL1 T-REx-HEK293 cell lines, 50 ng/mL tet, 24 hours; read-out: IP50 (i.e., IC50 for cell proliferation)
T1 sequence (O14791 1-398 S342G/I384M): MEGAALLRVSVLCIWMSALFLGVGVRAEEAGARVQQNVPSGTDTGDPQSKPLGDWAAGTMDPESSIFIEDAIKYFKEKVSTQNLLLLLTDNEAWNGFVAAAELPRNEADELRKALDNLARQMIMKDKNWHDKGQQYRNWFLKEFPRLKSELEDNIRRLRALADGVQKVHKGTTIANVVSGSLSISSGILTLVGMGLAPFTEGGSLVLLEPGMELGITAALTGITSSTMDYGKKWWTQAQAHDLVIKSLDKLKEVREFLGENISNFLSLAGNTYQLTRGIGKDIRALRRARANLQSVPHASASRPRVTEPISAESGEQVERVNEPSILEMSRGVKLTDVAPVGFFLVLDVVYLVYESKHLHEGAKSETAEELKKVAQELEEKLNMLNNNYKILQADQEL
Summary of the method: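 T-REx-HEK293 cells with tet-inducible APOL1 were treated with compound (10 μM top, 10-point 3-fold dilution, duplicate) plus 50 ng/mL tetracycline for 24 h at 37° C, in DMEM with 2% tet-free FBS. MultiTox-Fluor protease signals gave a dead/live ratio, normalized to no tet (100% viability) and tet alone (0%).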

Compared with `CCc1cc2c(s1)CCOC21CCN(Cc2cnc(C(C)O)s2)CC1` (centres unmarked) [Compound 1143], `CCc1cc2c(s1)CCOC21CCN(Cc2cnc(-c3cccnc3)s2)CC1` [Compound 1136] is higher in pIC50: 6.00 to 6.30 for the first, 6.30 to 7.00 for the second. The second is the more potent here.

First: CCc1cc2c(s1)CCO[C@@]21CCN(CCn2cccn2)[C@@H](C)C1 [Compound 286]
Second: CCc1cc2c(s1)CCO[C@@]21CCN(Cc2cn(CCC#N)nn2)[C@@H](C)C1 [Compound 37]
The pIC50 of the first is lower: 6.00 to 6.30 for the first, over 7.00 for the second.

First: C[C@H]1C[C@@]2(CCN1Cc1cnn(CCS(C)(=O)=O)c1)OCCc1sc(Cl)cc12 [Compound 518]
Second: CC(C)Cc1cc2c(s1)CCO[C@@]21CCN(Cc2cn(CCS(C)(=O)=O)nn2)[C@@H](C)C1 [Compound 514]
The pIC50 of the first is higher: over 7.00 for the first, 6.30 to 7.00 for the second.

`CCc1cc2c(s1)CCOC21CCN(Cc2ccc(C(=O)N[C@H](CC)CO)nc2)CC1` [Compound 1053] and `CCc1cc2c(s1)CCOC21CCN(Cc2ccc(C(=O)Nc3ccnn3C)nc2)CC1` [Compound 1052] cannot be ordered by pIC50: over 7.00 for the first, over 7.00 for the second.

`C[C@H]1C[C@@]2(CCN1Cc1cn(C)nn1)OCCc1c2sc(Cl)c1CO` [Compound 719] and `Cc1ncc(CN2CC[C@]3(C[C@@H]2C)OCCc2c3sc(Cl)c2CO)cn1` [Compound 738] fall in the same range of pIC50: 6.30 to 7.00 for the first, 6.30 to 7.00 for the second.

`C[C@H]1C[C@@]2(CCN1Cc1cnn(CC(=O)N(C)C)c1)OC[C@@H](O)c1cc(C(F)(F)F)sc12` [Compound 886] and `C[C@H]1C[C@@]2(CCN1Cc1cnn(CC(C)(O)CO)c1)OC[C@@H](O)c1cc(C(F)(F)F)sc12` (some centres unmarked) [Compound 972] cannot be ordered by pIC50: over 7.00 for the first, over 7.00 for the second.

`CCc1cc2c(s1)CCO[C@@]21CCN(Cc2cn(CCSCCO)nn2)[C@@H](C)C1` [Compound 23] and `CCc1cc2c(s1)CCO[C@@]21CCN(Cc2cn(C[C@@H](C)O)nn2)[C@@H](C)C1` [Compound 140] cannot be ordered by pIC50: over 7.00 for the first, over 7.00 for the second.

Compared with `C[C@H]1C[C@@]2(CCN1CC1CC1(F)F)OCCc1cc(CC(F)F)sc12` (some centres unmarked) [Compound 617], `C[C@H]1C[C@@]2(CCN1CC1CCOC1)OCCc1cc(CC(F)F)sc12` (some centres unmarked) [Compound 583] is lower in pIC50: over 7.00 for the first, 6.30 to 7.00 for the second. The first is the more potent here.

`CCc1cc2c(s1)CCO[C@@]21CCN(Cc2cnc(N[C@H]3CCCC[C@@H]3O)nc2)[C@@H](C)C1` [Compound 209] and `C[C@H]1C[C@@]2(CCN1Cc1cnc(N[C@H]3CC[C@H](O)CC3)nc1)OCC(O)c1cc(Cl)sc12` (mixture of isomers) [Compound 825, (2′S, 7R)-2-chloro-1′-[[2-[(4-hydroxycyclohexyl)amino]pyrimidin-5-yl]methyl]-2′-methyl-spiro[4,5-dihydrothieno[2,3-c]pyran-7,4′-piperidine]-4-ol] cannot be ordered by pIC50: over 7.00 for the first, over 7.00 for the second.

First: CCc1cc2c(s1)CCO[C@@]21CCN(Cc2cn(CC3CCO3)nn2)[C@@H](C)C1 (some centres unmarked) [Compound 33]
Second: CCc1cc2c(s1)CCO[C@@]21CCN(Cc2cn(CC3(C)COC3)nn2)[C@@H](C)C1 [Compound 118]
The pIC50 of the first is higher: over 7.00 for the first, 6.30 to 7.00 for the second.

`C[C@H]1C[C@@]2(CCN1Cc1cnn(CC(O)C3(O)CCC3)c1)OC[C@@H](O)c1cc(C(F)(F)F)sc12` (some centres unmarked) [Compound 979] and `C[C@H]1C[C@@]2(CCN1Cc1cnn(C[C@@H](O)C(=O)NC3CC3)c1)OC[C@@H](O)c1cc(C(F)(F)F)sc12` [Compound 995] cannot be ordered by pIC50: over 7.00 for the first, over 7.00 for the second.

First: C[C@H]1C[C@@]2(CCN1Cc1cn(CC(CO)CO)nn1)OCCc1cc(Cl)sc12 [Compound 628]
Second: C[C@H]1C[C@@]2(CCN1Cc1cn(CC(C)(C)CO)nn1)OC[C@](O)(C(F)F)c1cc(Cl)sc12 [Compound 838]
The pIC50 of the first is higher: 6.30 to 7.00 for the first, 6.00 to 6.30 for the second.

`CCc1cc2c(s1)CCO[C@@]21CCN(CC2CN(C(=O)c3ncc[nH]3)C2)[C@@H](C)C1` [Compound 468] and `CCc1cc2c(s1)CCO[C@@]21CCN(CC2CN(C(=O)c3cccc(CO)c3)C2)[C@@H](C)C1` [Compound 428] cannot be ordered by pIC50: over 7.00 for the first, over 7.00 for the second.

`C[C@H]1C[C@@]2(CCN1Cc1ccon1)OCCc1cc(CC(F)F)sc12` [Compound 579] and `COC(=O)N[C@H]1C[C@@H](CN2CC[C@]3(C[C@@H]2C)OCCc2cc(CC(F)F)sc23)C1` [Compound 554] cannot be ordered by pIC50: over 7.00 for the first, over 7.00 for the second.

First: CCc1cc2c(s1)CCOC21CCN(Cc2ccc(C(=O)Nc3ccn(C)n3)nc2)CC1 [Compound 1051]
Second: CCc1cc2c(s1)CCOC21CCN(Cc2cn(CCC(=O)NCCO)nn2)CC1 [Compound 1111]
The pIC50 of the first is higher: over 7.00 for the first, 6.00 to 6.30 for the second. The first is the more potent here.

First: CCc1cc2c(s1)CCO[C@@]21CCN(C[C@H]2C[C@@H](NS(=O)(=O)CC(=O)OC)C2)[C@@H](C)C1 [Compound 392]
Second: CCc1cc2c(s1)CCO[C@@]21CCN(C[C@H]2C[C@@H](NC(=O)C3(O)CC3)C2)[C@@H](C)C1 [Compound 335]
The pIC50 of the first is lower: 6.00 to 6.30 for the first, over 7.00 for the second.

`CCc1cc2c(s1)CCO[C@@]21CCN(CC2CN(S(=O)(=O)CC)C2)[C@@H](C)C1` [Compound 491, (2′S,4R)-2-ethyl-1′-[(1-ethylsulfonylazetidin-3-yl)methyl]-2′-methyl-spiro[6,7-dihydrothieno[3,2-c]pyran-4,4′-piperidine]] and `CCc1cc2c(s1)CCO[C@@]21CCN(CC2CN(C(=O)CCS(N)(=O)=O)C2)[C@@H](C)C1` [Compound 453] fall in the same range of pIC50: 6.30 to 7.00 for the first, 6.30 to 7.00 for the second.

Compared with `CCc1cc2c(s1)CCO[C@@]21CCN(Cc2cn(CC3(S(C)(=O)=O)CCOCC3)nn2)[C@@H](C)C1` [Compound 155], `CCc1cc2c(s1)CCO[C@@]21CCN(Cc2cn(Cc3ncc(C)o3)nn2)[C@@H](C)C1` [Compound 40] is lower in pIC50: over 7.00 for the first, 6.30 to 7.00 for the second.

`COCC(O)Cn1cc(CN2CC[C@]3(C[C@@H]2C)OCCc2c3sc(C(F)(F)F)c2CO)cn1` (some centres unmarked) [Compound 958] and `C[C@H]1C[C@@]2(CCN1Cc1cnn(CC(O)CC3(O)CCCC3)c1)OCCc1c2sc(C(F)(F)F)c1CO` (some centres unmarked) [Compound 962] cannot be ordered by pIC50: over 7.00 for the first, over 7.00 for the second.

`C[C@H]1C[C@@]2(CCN1Cc1cn(C3CCOCC3)nn1)OCCc1c2sc(C(F)(F)F)c1CO` [Compound 1004] and `CC(c1nnc[nH]1)n1cc(CN2CC[C@]3(C[C@@H]2C)OCCc2c3sc(C(F)(F)F)c2CO)cn1` (some centres unmarked) [Compound 925] fall in the same range of pIC50: 6.30 to 7.00 for the first, 6.30 to 7.00 for the second.

`CCc1cc2c(s1)CCO[C@@]21CCN(C[C@H]2C[C@@H](NS(=O)(=O)c3ccccc3)C2)[C@@H](C)C1` [Compound 397] and `CCc1cc2c(s1)CCO[C@@]21CCN(C[C@H]2C[C@@H](NS(=O)(=O)c3ccc(F)cc3)C2)[C@@H](C)C1` [Compound 399] cannot be ordered by pIC50: over 7.00 for the first, over 7.00 for the second.

First: CCc1sc2c(c1Br)[C@]1(CCN(Cc3cn(CCS(C)(=O)=O)nn3)[C@@H](C)C1)OCC2 [Compound 526, (2′S,4R)-3-bromo-2-ethyl-2′-methyl-1′-[[1-(2-methylsulfonylethyl)triazol-4-yl]methyl]spiro[6,7-dihydrothieno[3,2-c]pyran-4,4′-piperidine]]
Second: C[C@H]1C[C@@]2(CCN1Cc1cn(CCS(C)(=O)=O)nn1)OCCc1c2sc(C(F)(F)F)c1C(=O)NCC(F)F [Compound 1009]
The pIC50 of the first is higher: 6.30 to 7.00 for the first, 6.00 to 6.30 for the second.

First: C[C@H]1C[C@@]2(CCN1Cc1cnn(CC(O)c3ccnn3C)c1)OCCc1c2sc(C(F)(F)F)c1CO (some centres unmarked) [Compound 965]
Second: C[C@H]1C[C@@]2(CCN1CCC1CCOCC1)OC[C@H](O)c1cc(Cl)sc12 [Compound 779]
The pIC50 of the first is higher: over 7.00 for the first, 6.00 to 6.30 for the second. The first is the more potent here.

With `CCc1cc2c(s1)CCO[C@@]21CCN([C@H]2C[C@H](NC(=O)OC(C)(C)C)C2)[C@@H](C)C1` [Compound 297] the pIC50 was 6.00 to 6.30.
